Test results as given in patent publication US20040072990A1, “Antimicrobial peptides with reduced hemolysis and methods of their use” (priority 2002, published 2004).
In brackets after ≈: the same amount, converted by molar mass. Residues, ends and D or L forms follow the SMILES beside them.

Key:
human red blood cells = assay: Erythrocyte lysis (hemolysis); type: cell-based
Experimental: Pac 521-530 were tested for hemolysis against human red blood cells (RBC). The RBCs with EDTA were rinsed 3 times with PBS (800 g, 10 min) and resuspended in PBS. The RBCs were diluted into 10% with phosphate-buffered saline and placed 50 μl into each eppendorf. The peptides that dissolved in PBS were then added to 50 μl of 10% solution of RBCs and incubated for an hour at 37° C. (final RBC concentration, 5% v/v). The samples were centrifuged at 800 g for 10 min […]. Various concentrations of peptides were incubated with pretreated RBC and the percentage of hemolysis determined. […]

B. pumilus = assay: MIC test (NCCLS broth microdilution); type: cell-based, Bacillus pumilus
Experimental: (§1) Generally, the in vitro antimicrobial activities of antimicrobial agents were tested using standard NCCLS bacterial inhibition assays, or minimum inhibition concentration (MIC) tests. The MIC value is the lowest concentration of peptide at which the visible growth of test organisms is inhibited and reduced.
(§2) Briefly, overnight cultures of the test organisms were diluted to produce an inoculum containing approximately 10^5 colonies in Meuller-Hinton broth (MHB). From the peptide stock solution, serial two-dilutions of the peptides in 50 μl volume was prepared in a 96-well microtiter plate, and all wells were subsequently inoculated with the diluted culture of the test organisms. After 18 hours of incubation at 37° C., the results were assayed for turbidity (cell growth). MIC values were performed three times on different occasions (FIG. 2), and the median values are shown.

S. aureus = assay: MIC test (NCCLS broth microdilution); type: cell-based, Staphylococcus aureus
Experimental: (§3) The MIC value is the lowest concentration of peptide at which the visible growth of test organisms is inhibited and reduced.
as §2

E. coli = assay: MIC test (NCCLS broth microdilution); type: cell-based
Experimental: as §3, §2

B. substiis = assay: MIC test (NCCLS broth microdilution); type: cell-based, Bacillus. substilis
Experimental: as §1, §2

P. aeruginosa = assay: MIC test (NCCLS broth microdilution); type: cell-based, Pseudomonas aeruginosa
Experimental: as §1, §2

B. cereus = assay: MIC test (NCCLS broth microdilution); type: cell-based, Bacillus cereus
Experimental: as §1, §2

S. epidermidis = assay: MIC test (NCCLS broth microdilution); type: cell-based, Staphylococcus epidermidis
Experimental: as §1, §2

CC[C@H](C)[C@H](NC(=O)[C@H](Cc1c[nH]c2ccccc12)NC(=O)[C@H](CCCNC(=N)N)NC(=O)[C@@H](NC(=O)[C@H](Cc1c[nH]c2ccccc12)NC(=O)[C@H](CCCNC(=N)N)NC(=O)[C@H](CCCNC(=N)N)NC(=O)[C@H](Cc1c[nH]c2ccccc12)NC(=O)[C@@H](N)CCCCN)C(C)C)C(N)=O [Pac-525 L, K W R R W V R W I] (H-KWRRWVRWI-NH2; N-terminus and C-terminus assumed)
% lysis at 5 μg/ml (human red blood cells): 0.81% | % lysis at 50 μg/ml (human red blood cells): 7.2% | % lysis at 500 μg/ml (human red blood cells): 14% | hemolysis against RBC compared with other antimicrobial peptides (human red blood cells; human RBC, in words): substantially less hemolytic

CC[C@H](C)[C@H](NC(=O)[C@H](Cc1c[nH]c2ccccc12)NC(=O)[C@H](CCCNC(=N)N)NC(=O)[C@H](CCCNC(=N)N)NC(=O)[C@H](Cc1c[nH]c2ccccc12)NC(=O)[C@@H](N)CCCCN)C(N)=O [Pac 301 L, K W R R W I] (H-KWRRWI-NH2; N-terminus and C-terminus assumed)
% lysis at 5 μg/ml (human red blood cells): 0.85% | % lysis at 50 μg/ml (human red blood cells): 6.8% | % lysis at 500 μg/ml (human red blood cells): 14%

CC[C@H](C)[C@H](NC(=O)[C@H](Cc1ccccc1)NC(=O)[C@H](CCCNC(=N)N)NC(=O)[C@@H](NC(=O)[C@H](Cc1ccccc1)NC(=O)[C@H](CCCNC(=N)N)NC(=O)[C@H](CCCNC(=N)N)NC(=O)[C@H](Cc1ccccc1)NC(=O)[C@@H](N)CCCCN)C(C)C)C(N)=O [Pac-527 L, K F R R F V R F I] (H-KFRRFVRFI-NH2; N-terminus assumed)
MIC (B. pumilus; 1X Phosphate Buffer): 4 µg/mL (≈ 3.16 µM) | MIC (B. pumilus; Non Phosphate Buffer): 2 µg/mL (≈ 1.58 µM) | MIC (S. aureus; 1X Phosphate Buffer): 4 µg/mL (≈ 3.16 µM) | MIC (S. aureus; Non Phosphate Buffer): 4 µg/mL (≈ 3.16 µM) | MIC (E. coli; 1X Phosphate Buffer): 8 µg/mL (≈ 6.31 µM) | MIC (E. coli; Non Phosphate Buffer): 4 µg/mL (≈ 3.16 µM) | MIC (B. substiis; 1X Phosphate Buffer): 2 µg/mL (≈ 1.58 µM) | MIC (B. substiis; Non Phosphate Buffer): 4 µg/mL (≈ 3.16 µM) | MIC (P. aeruginosa; 1X Phosphate Buffer): 8 µg/mL (≈ 6.31 µM) | MIC (P. aeruginosa; Non Phosphate Buffer): 4 µg/mL (≈ 3.16 µM) | MIC (B. cereus; 1X Phosphate Buffer): 4 µg/mL (≈ 3.16 µM) | MIC (B. cereus; Non Phosphate Buffer): 4 µg/mL (≈ 3.16 µM) | MIC (S. epidermidis; 1X Phosphate Buffer): 4 µg/mL (≈ 3.16 µM) | MIC (S. epidermidis; Non Phosphate Buffer): 2 µg/mL (≈ 1.58 µM)

CC[C@H](C)[C@H](NC(=O)[C@H](Cc1c[nH]c2ccccc12)NC(=O)[C@H](CCCCN)NC(=O)[C@@H](NC(=O)[C@H](Cc1c[nH]c2ccccc12)NC(=O)[C@@H](N)CCCCN)[C@@H](C)CC)C(N)=O [Pac-305 L, K W I K W I] (H-KWIKWI-NH2; N-terminus and C-terminus assumed)
% lysis at 5 μg/ml (human red blood cells): 0.74% | % lysis at 50 μg/ml (human red blood cells): 7.2% | % lysis at 500 μg/ml (human red blood cells): 15%
